In patent US9441012B2, “Fluorinated epoxyketone-based compounds and uses thereof as proteasome inhibitors” (FLUORINOV PHARMA INC., priority 2012, dated 2016):

Experiments:
Assay in all cases: NCI 60 human tumor cell line screen (SRB)
Assay type in all cases: cell-based
COLO 205 = COLO 205 (Colon Cancer); 48 h
Procedure, shortened: (§1)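 Cells plated 24 h before dosing, with time-zero plates TCA-fixed at drug addition; five concentrations (10-fold or ½-log dilutions) added and incubated 48 h at 37 °C, 5% CO2. Adherent cells fixed with 10% TCA, stained with 0.4% SRB, absorbance read at 515 nm; GI50, TGI and LC50 derived from percentage growth versus time zero and control.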

DU-145 = DU-145 (Prostate Cancer); 48 h
Procedure, shortened: as §1

HCT-116 = HCT-116 (Colon Cancer); 48 h
Procedure, shortened: as §1

K-562 = K-562 (Leukemia); 48 h
Procedure, shortened: as §1

LOX IMVI = LOX IMVI (Melanoma); 48 h
Procedure, shortened: as §1

MCF7 = MCF7 (Breast Cancer); 48 h
Procedure, shortened: as §1

MDA-MB-231/ATCC = MDA-MB-231/ATCC (Breast Cancer); 48 h
Procedure, shortened: as §1

NCI-H23 = NCI-H23 (Non-Small Cell Lung Cancer); 48 h
Procedure, shortened: as §1

NCI-H322M = NCI-H322M (Non-Small Cell Lung Cancer); 48 h
Procedure, shortened: as §1

OVCAR-4 = OVCAR-4 (Ovarian Cancer); 48 h
Procedure, shortened: as §1

TK-10 = TK-10 (Renal Cancer); 48 h
Procedure, shortened: as §1

UACC-257 = UACC-257 (Melanoma); 48 h
Procedure, shortened: as §1

Structure (SMILES)	Log10GI50 (COLO 205)	Log10LC50 (COLO 205)	Log10TGI50 (COLO 205)	Log10GI50 (DU-145)	Log10LC50 (DU-145)	Log10TGI50 (DU-145)	Log10GI50 (HCT-116)	Log10LC50 (HCT-116)	Log10TGI50 (HCT-116)	Log10GI50 (K-562)	Log10LC50 (K-562)	Log10TGI50 (K-562)	Log10GI50 (LOX IMVI)	Log10LC50 (LOX IMVI)	Log10TGI50 (LOX IMVI)	Log10GI50 (MCF7)	Log10LC50 (MCF7)	Log10TGI50 (MCF7)	Log10GI50 (MDA-MB-231/ATCC)	Log10LC50 (MDA-MB-231/ATCC)	also measured
Cc1ncc(C(=O)N[C@@H](COC(F)F)C(=O)N[C@@H](COC(F)F)C(=O)N[C@@H](Cc2ccccc2)C(=O)[C@@]2(C)CO2)s1 [Example 1, 2-methyl-thiazole-5-carboxylic acid ((S)-1-{(S)-1-[(S)-1-benzyl-2-((R)-2-methyloxiranyl)-2-oxo-ethylcarbamoyl]-2-difluoromethoxyethylcarbamoyl}-2-difluoromethoxyethyl)-amide]	−6.22	>−4.00	−4.85	−6.58	−5.02	−5.64	−7.32	−6.17	−6.71	−6.50	>−4.00	>−4.00	−6.96	−6.16	−6.56	−7.35	>−4.00	−4.62	−6.66	−4.73	Log10TGI50 (MDA-MB-231/ATCC): −6.01; Log10GI50 (NCI-H23): −6.85; Log10LC50 (NCI-H23): −5.27; Log10TGI50 (NCI-H23): −5.92; Log10GI50 (NCI-H322M): −5.54; Log10LC50 (NCI-H322M): −4.23; Log10TGI50 (NCI-H322M): −4.74; Log10GI50 (OVCAR-4): −6.29; Log10LC50 (OVCAR-4): >−4.00; Log10TGI50 (OVCAR-4): >−4.00; Log10GI50 (TK-10): −6.71; Log10TGI50 (TK-10): −6.06; Log10GI50 (UACC-257): −6.87; Log10LC50 (UACC-257): >−4.00; Log10TGI50 (UACC-257): −6.20
CC(C)C[C@H](NC(=O)[C@H](Cc1ccccc1)NC(=O)[C@H](COC(F)F)NC(=O)CN1CCOCC1)C(=O)[C@@]1(C)CO1 [Example 25, (2S)-2-[[(2S)-3-(difluoromethoxy)-2-[(2-morpholinoacetyl)amino]propanoyl]amino]-N-[(1S)-3-methyl-1-[(2R)-2-methyloxirane-2-carbonyl]butyl]-3-phenyl-propanamide]	−7.39	−6.21	−6.76	−7.27	>−4.00	−5.32	−7.70	−6.55	−7.30	−7.41	>−4.00	>−4.00	−7.73	−7.10	−7.42	−7.53	>−4.00	−4.89	−7.52	−4.21	Log10TGI50 (MDA-MB-231/ATCC): −6.80; Log10GI50 (NCI-H23): −7.62; Log10LC50 (NCI-H23): −5.64; Log10TGI50 (NCI-H23): −7.13; Log10GI50 (NCI-H322M): −7.10; Log10LC50 (NCI-H322M): >−4.00; Log10TGI50 (NCI-H322M): −6.33; Log10GI50 (OVCAR-4): −7.50; Log10LC50 (OVCAR-4): >−4.00; Log10TGI50 (OVCAR-4): −6.75; Log10GI50 (TK-10): −7.49; Log10LC50 (TK-10): >−4.00; Log10TGI50 (TK-10): −6.07; Log10GI50 (UACC-257): −7.18; Log10LC50 (UACC-257): >−4.00; Log10TGI50 (UACC-257): −6.32
C[C@]1(C(=O)[C@H](Cc2ccccc2)NC(=O)[C@H](COC(F)F)NC(=O)[C@H](COC(F)F)NC(=O)CN2CCOCC2)CO1 [Example 26, (S)-N-{(S)-1-[(S)-1-Benzyl-2-((R)-2-methyl-oxiranyl)-2-oxo-ethylcarbamoyl]-2-difluoromethoxyethyl}-3-difluoromethoxy-2-(2-morpholin-4-yl-acetylamino)-propio-namide]	−7.39	−6.21	−6.76	−7.27	>−4.00	−5.32	−7.70	−6.55	−7.30	−7.41	>−4.00	>−4.00	−7.73	−7.10	−7.42	−7.53	>−4.00	−4.89	−7.52	−4.21	Log10TGI50 (MDA-MB-231/ATCC): −6.80; Log10GI50 (NCI-H23): −7.62; Log10LC50 (NCI-H23): −5.64; Log10TGI50 (NCI-H23): −7.13; Log10GI50 (NCI-H322M): −7.10; Log10LC50 (NCI-H322M): >−4.00; Log10TGI50 (NCI-H322M): −6.33; Log10GI50 (OVCAR-4): −7.50; Log10LC50 (OVCAR-4): >−4.00; Log10TGI50 (OVCAR-4): −6.75; Log10GI50 (TK-10): −7.49; Log10LC50 (TK-10): >−4.00; Log10TGI50 (TK-10): −6.07; Log10GI50 (UACC-257): −7.18; Log10LC50 (UACC-257): >−4.00; Log10TGI50 (UACC-257): −6.32
C[C@]1(C(=O)[C@H](Cc2ccccc2)NC(=O)[C@H](Cc2ccccc2)NC(=O)[C@H](COC(F)F)NC(=O)CN2CCOCC2)CO1 [Example 29]	−6.90	−5.34	−6.32	−7.00	−4.09	−5.05	−7.46	>−4.00	−5.91	−7.00	>−4.00	>−4.00	−7.50	−6.35	−6.90	−7.38	>−4.00	>−4.00	−7.04	−4.44	Log10TGI50 (MDA-MB-231/ATCC): −6.27; Log10GI50 (NCI-H23): −7.21; Log10LC50 (NCI-H23): >−4.00; Log10TGI50 (NCI-H23): −5.55; Log10GI50 (NCI-H322M): −6.27; Log10LC50 (NCI-H322M): −4.18; Log10TGI50 (NCI-H322M): −5.52; Log10GI50 (OVCAR-4): −6.98; Log10TGI50 (OVCAR-4): >−4.00; Log10GI50 (TK-10): −6.55; Log10LC50 (TK-10): >−4.00; Log10TGI50 (TK-10): −5.10; Log10GI50 (UACC-257): −6.81; Log10LC50 (UACC-257): >−4.00; Log10TGI50 (UACC-257): −6.00
